Laboratory results as given in patent US11584775B2, “C4-modified oleanolic acid derivatives for inhibition of IL-17 and other uses” (REATA PHARMACEUTICALS, INC., priority 2015, dated 2023).

Columns and labels:
[1] = molecular target: T1, human RORγ (Homo sapiens, UniProt P51449); assay: RORγ assay (GAL4-RORγ hybrid luciferase reporter, inverse-agonist activity); assay type: cell-based; conditions: GAL4-RORγ hybrid reporter cells, 23 hours
T1 sequence (P51449 269-508 limits assumed): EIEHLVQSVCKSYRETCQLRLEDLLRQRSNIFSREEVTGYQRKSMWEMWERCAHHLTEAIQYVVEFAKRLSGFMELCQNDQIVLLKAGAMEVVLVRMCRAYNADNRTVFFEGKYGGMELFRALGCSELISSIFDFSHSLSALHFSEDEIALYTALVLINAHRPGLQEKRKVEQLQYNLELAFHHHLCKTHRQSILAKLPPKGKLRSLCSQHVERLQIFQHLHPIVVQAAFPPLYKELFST
Procedure, shortened: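 Human cell line expressing GAL4-DBD/RORγ hybrid with UAS-driven luciferase, treated in triplicate with compound (0.4–200 nM or 2–1000 nM) for 23 h at 37 °C. Luminescence normalized to DMSO; viability measured in parallel by multiplex assay. IC50 for RORγ and viability by variable-slope nonlinear regression.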

[2] = system: IFNγ-induced Nitric Oxide production; assay: Nitric oxide production assay in RAW 264.7 mouse macrophages; assay type: cell-based; conditions: RAW264.7, suppression of IFNγ-induced NO production normalized to cell viability (WST-1), RAW 264.7, 24 hours IFNγ
Procedure, shortened: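 Cells pre-treated 2 h with compound (0.4-200 nM or 2-1000 nM) in RPMI 1640 + 0.5% FBS, then stimulated with recombinant mouse IFNγ for 24 h at 37 °C. Nitrite measured by Griess reagent, viability by WST-1; IC50 from NO suppression normalized to viability and to DMSO/IFNγ controls.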

[3] = system: hIL17; assay: IL-17 release from differentiated primary human T-cells (IL-17A HTRF assay); assay type: cell-based; conditions: inhibition of IL-17A levels; primary human CD4+ T cells differentiated into Th17 cells, 46-hour incubation
Procedure, shortened: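 Cryopreserved primary human CD4+ T cells were activated with anti-CD3/CD28 beads and driven to Th17 with TGF-β, IL-6, IL-23 and IL-1β in the presence of compound (2-500 nM or 4-1000 nM) for 46 h at 37° C. Supernatant IL-17A was quantified by HTRF against a standard curve and normalized to DMSO. IC50s came from variable-slope fits, with viability read by CyQuant.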

[4] = system: NRF2; assay: AREc32 luciferase reporter assay; assay type: cell-based, human; conditions: EC2×: concentration required to increase GST ARE Luciferase reporter activity by 2-fold; AREc32 cells, 19 hours
Procedure, shortened: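 AREc32 cells (MCF-7 stably carrying eight rat GSTA2 ARE copies driving firefly luciferase) treated 19 h with compound (0.4–200 nM or 2–1000 nM), triplicate. Luminescence normalized to DMSO as fold-induction; variable-slope fit capped at 50-fold; EC2× = concentration giving 2-fold induction.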

SMILES | IC50 [1] [nM] | IC50 [2] [nM] | IC50 [3] [nM] | EC2x: concentration giving 2-fold induction of ARE luciferase reporter [4] [nM]
COCC[C@]1(C)C(=O)C(C#N)=C[C@]2(C)C3=CC(=O)[C@@H]4[C@@H]5CC(C)(C)CC[C@]5(C(=O)OC)CC[C@@]4(C)[C@]3(C)CC[C@H]21 [Compound T17, methyl (4aS,6aR,6bS,8aR,9S,12aS,14aR,14bS)-11-cyano-9-(2-methoxyethyl)-2,2,6a,6b,9,12a-hexamethyl-10,14-dioxo-1,3,4,5,6,6a,6b,7,8,8a,9,10,12a,14,14a,14b-hexadecahydropicene-4a(2H)-carboxylate] | 250 | 19.5 | 30 | 64
COC(=O)[C@]12CCC(C)(C)C[C@H]1[C@H]1C(=O)C=C3[C@@]4(C)C=C(C#N)C(=O)[C@@](C)(CO)[C@@H]4CC[C@@]3(C)[C@]1(C)CC2 [Comparison Compound #300, reference compound] | 152 | 7.4 | 18 | 34
CN(C)C(=O)[C@]12CCC(C)(C)C[C@H]1[C@H]1C(=O)C=C3[C@@]4(C)C=C(C#N)C(=O)[C@@](C)(O)[C@@H]4CC[C@@]3(C)[C@]1(C)CC2 [Compound T30, (4aS,6aR,6bS,8aR,9S,12aS,14aR,14bS)-11-cyano-9-hydroxy-N,N,2,2,6a,6b,9,12a-octamethyl-10,14-dioxo-1,3,4,5,6,6a,6b,7,8,8a,9,10,12a,14,14a,14b-hexadecahydropicene-4a(2H)-carboxamide] | 164 | 173 | 59 | 448
CC(=O)OC[C@]1(C)C(=O)C(C#N)=C[C@]2(C)C3=CC(=O)[C@@H]4[C@@H]5CC(C)(C)CC[C@]5(NC(=O)C(C)(F)F)CC[C@@]4(C)[C@]3(C)CC[C@H]21 [Compound T29, ((4R,4aR,6aS,6bR,8aS,12aS,12bR,14bS)-2-cyano-8a-(2,2-difluoropropanamido)-4,6a,6b,11,11,14b-hexamethyl-3,13-dioxo-3,4,4a,5,6,6a,6b,7,8,8a,9,10,11,12,12a,12b,13,14b-octadecahydropicen-4-yl)methyl acetate] | 141 | 118 | 37 | 360
C[C@H](O)[C@]1(C)C(=O)C(C#N)=C[C@]2(C)C3=CC(=O)[C@]45OC(=O)[C@@]6(CCC(C)(C)C[C@H]64)CC[C@@]5(C)[C@]3(C)CC[C@@H]12 [Compound T48, (4R,4aR,6aR,6bS,8aS,12aR,12bS,14bS)-4-((S)-1-hydroxyethyl)-4,6a,6b, 11,11,14b-hexamethyl-3,13,16-trioxo-4,4a,5,6,6a,6b,7,8,10,11,12,12a,13,14b-tetradecahydro-3H,9H-12b,8a-(epoxymethano)picene-2-carbonitrile] | 162 | 1.2 | 13 | 3
CC1(C)CC[C@@]23CC[C@@]4(C)[C@]5(C)CC[C@H]6[C@](C)(O)C(=O)C(C#N)=C[C@]6(C)C5=CC(=O)[C@]4(OC2=O)[C@@H]3C1 [Compound T33, (4S,4aR,6aR,6bS,8aS,12aR,12bS,14bS)-4-hydroxy-4,6a,6b, 11,11,14b-hexamethyl-3,13,16-trioxo-4,4a,5,6,6a,6b,7,8,10,11,12,12a,13,14b-tetradecahydro-3H,9H-12b,8a-(epoxymethano)picene-2-carbonitrile] | 220 | 79.9 | 25 | 120
COC(=O)[C@]12CCC(C)(C)C[C@H]1[C@H]1C(=O)C=C3[C@@]4(C)C=C(C#N)C(=O)[C@@](C)(NC(=O)OC(C)(C)C)[C@@H]4CC[C@@]3(C)[C@]1(C)CC2 [Compound T10] | 1080 | 414 | 204 | >1000
CC1(C)CC[C@]2(NC(=O)C(C)(F)F)CC[C@]3(C)[C@H](C(=O)C=C4[C@@]5(C)C=C(C#N)C(=O)[C@@](C)(O)[C@@H]5CC[C@]43C)[C@@H]2C1 [Compound T27, N-((4aS,6aR,6bS,8aR,9S,12aS,14aR,14bS)-11-cyano-9-hydroxy-2,2,6a,6b,9,12a-hexamethyl-10,14-dioxo-1,3,4,5,6,6a,6b,7,8,8a,9,10,12a,14,14a,14b-hexadecahydropicen-4a(2H)-yl)-2,2-difluoropropanamide] | 410 | 146 | 62 | 396
COC(=O)[C@]12CCC(C)(C)C[C@H]1[C@@]1(O)C(=O)C=C3[C@@]4(C)C=C(C#N)C(=O)C(C)(C)[C@@H]4CC[C@@]3(C)[C@]1(C)CC2 [Comparison Compound #5, reference compound] | 135 | 1.6 | 15 | 2
COC(=O)[C@]12CCC(C)(C)C[C@H]1[C@H]1C(=O)C=C3[C@@]4(C)C=C(C#N)C(=O)[C@@](C)(CCO)[C@@H]4CC[C@@]3(C)[C@]1(C)CC2 [Compound T19] | 233 | 17.4 | 15 | 76
COC(=O)N[C@]12CCC(C)(C)C[C@H]1[C@H]1C(=O)C=C3[C@@]4(C)C=C(C#N)C(=O)[C@@](C)(CO)[C@@H]4CC[C@@]3(C)[C@]1(C)CC2 [Compound T40, methyl ((4aS,6aR,6bS,8aR,9R,12aS,14aR,14bS)-11-cyano-9-(hydroxymethyl)-2,2,6a,6b,9,12a-hexamethyl-10,14-dioxo-1,3,4,5,6,6a,6b,7,8,8a,9,10,12a,14,14a,14b-hexadecahydropicen-4a(2H)-yl)carbamate] | 698 | 24.6 | 37 | 130
COC(=O)[C@]1(C)C(=O)C(C#N)=C[C@]2(C)C3=CC(=O)[C@]45OC(=O)[C@@]6(CCC(C)(C)C[C@H]64)CC[C@@]5(C)[C@]3(C)CC[C@@H]12 [Compound T34, methyl (4S,4aR,6aR,6bS,8aS,12aR,12bS,14bS)-2-cyano-4,6a,6b, 11,11,14b-hexamethyl-3,13,16-trioxo-4,4a,5,6,6a,6b,7,8,10,11,12,12a,13,14b-tetradecahydro-3H,9H-12b,8a-(epoxymethano)picene-4-carboxylate] | 268 | 383 | 46 | 377
CC(=O)OC[C@]1(C)C(=O)C(C#N)=C[C@]2(C)C3=CC(=O)[C@@H]4[C@@H]5CC(C)(C)CC[C@]5(c5nnc(C)o5)CC[C@@]4(C)[C@]3(C)CC[C@H]21 [Compound T43, ((4R,4aR,6aS,6bR,8aS,12aS,12bR,14bS)-2-cyano-4,6a,6b, 11,11,14b-hexamethyl-8a-(5-methyl-1,3,4-oxadiazol-2-yl)-3,13-dioxo-3,4,4a,5,6,6a,6b,7,8,8a,9,10,11,12,12a,12b,13,14b-octadecahydropicen-4-yl)methyl acetate] | 146 | 110 | 46 | 369
COC(=O)[C@]12CCC(C)(C)C[C@H]1[C@H]1C(=O)C=C3[C@@]4(C)C=C(C#N)C(=O)[C@@](C)(C(=O)OC)[C@@H]4CC[C@@]3(C)[C@]1(C)CC2 [Compound T2, dimethyl (4S,4aR,6aS,6bR,8aS,12aS,12bR,14bS)-2-cyano-4,6a,6b,11,11,14b-hexamethyl-3,13-dioxo-4,4a,5,6,6a,6b,7,8,9,10,11,12,12a,12b,13,14b-hexadecahydropicene-4,8a(3H)-dicarboxylate] | 216 | 92 | 19 | 204
COC(=O)[C@]12CCC(C)(C)C[C@H]1[C@H]1C(=O)C=C3[C@@]4(C)C=C(C#N)C(=O)[C@@](C)(NC(C)=O)[C@@H]4CC[C@@]3(C)[C@]1(C)CC2 [Compound T12, methyl (4aS,6aR,6bS,8aR,9S,12aS,14aR,14bS)-9-acetamido-11-cyano-2,2,6a,6b,9,12a-hexamethyl-10,14-dioxo-1,3,4,5,6,6a,6b,7,8,8a,9,10,12a,14,14a,14b-hexadecahydropicene-4a(2H)-carboxylate] | 419 | > 1000 | 81 | >1000
